Measured values as given in patent publication US8883745B2, “C—glycolipids with enhanced Th-1 profile” (New York University, priority 2006, dated 2014).

Experiments:
Type in all cases: in vivo
IL-4 [1] = assay: IL-4 levels in sera upon i.v. glycolipid administration to C57BL/6 mice (ELISA); parameters: unit not given here
Method in brief: (§1)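 Blood is sampled from dosed animals at 0, 2, 6, 12, 24, 48 and 72 h after i.v. injection of 1 μg glycolipid in PBS. The 1:10-diluted sera are incubated 2 h at room temperature on antibody-coated plates, developed with biotinylated antibody, avidin-HRP and TMB, and quantified at 450 nm against standards.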

IL-12 = IL-12 levels in sera upon i.v. glycolipid administration to C57BL/6 mice (ELISA); parameters: IL-12 levels, test 1 / IL-12 levels, test 2 / IL-12 levels, average / IL-12 levels, Total: unit not given here
Method in brief: as §1

IL-4 [2] = assay: IL-4 levels in sera upon i.v. glycolipid administration to BALB/c mice (ELISA); parameters: unit not given here
Method in brief: as §1

IFN-γ = IFN-γ levels in sera upon i.v. glycolipid administration to C57BL/6 mice (ELISA); parameters: IFN-γ levels, test 1 / IFN-γ levels, test 2 / IFN-γ levels, average / IFN-γ levels, Total / IFN-γ (B6): unit not given here
Method in brief: as §1

[3] = C57BL/6, ratio calculated from Tables 1-6
[4] = C57BL/6, serum, total over hours 0-72

CCCCCCCCCCCCCCCCCCCCCCCCCC(=O)N[C@@H](CO[C@H]1O[C@H](CO)[C@H](O)[C@H](O)[C@H]1O)[C@H](O)[C@H](O)CCCCCCCCCCCCCC [KRN, (2S,3S,4R)-1-O-(α-D-galactopyranosyl)-2-(N-hexacosanoylamino)-1,3,4-,-octadecanetriol, reference compound]
IL-4 level, average (IL-4 [1]; hour 0): 46
IL-4 level, test 1 (IL-4 [1]; hour 0): 46
IL-4 level, test 2 (IL-4 [1]; hour 0): 46
IL-4 level, average (IL-4 [1]; hour 2): 3915
IL-4 level, test 1 (IL-4 [1]; hour 2): 3584
IL-4 level, test 2 (IL-4 [1]; hour 2): 4246
IL-4 level, average (IL-4 [1]; hour 6): 183
IL-4 level, test 1 (IL-4 [1]; hour 6): 122
IL-4 level, test 2 (IL-4 [1]; hour 6): 244
IL-4 level, average (IL-4 [1]; hour 12): 102.5
IL-4 level, test 1 (IL-4 [1]; hour 12): 103
IL-4 level, test 2 (IL-4 [1]; hour 12): 102
IL-4 level, average (IL-4 [1]; hour 24): 18
IL-4 level, test 1 (IL-4 [1]; hour 24): 20
IL-4 level, test 2 (IL-4 [1]; hour 24): 16
IL-4 level, average (IL-4 [1]; hour 48): 1
IL-4 level, test 1 (IL-4 [1]; hour 48): 2
IL-4 level, test 2 (IL-4 [1]; hour 48): 0
IL-4 level, average (IL-4 [1]; hour 72): 0.5
IL-4 level, test 1 (IL-4 [1]; hour 72): 0
IL-4 level, test 2 (IL-4 [1]; hour 72): 1
IL-4 level, Total (IL-4 [1]; total over hours 0-72): 4267
IL-12/IL-4 (B6) (IL-12; [3]): 0.3
IL-12 levels, average (IL-12; C57BL/6, serum, hour 0): 5
IL-12 levels, test 1 (IL-12; C57BL/6, serum, hour 0): 5
IL-12 levels, test 2 (IL-12; C57BL/6, serum, hour 0): 5
IL-12 levels, average (IL-12; C57BL/6, serum, hour 2): 0
IL-12 levels, test 1 (IL-12; C57BL/6, serum, hour 2): 0
IL-12 levels, test 2 (IL-12; C57BL/6, serum, hour 2): 0
IL-12 levels, average (IL-12; C57BL/6, serum, hour 6): 1044.5
IL-12 levels, test 1 (IL-12; C57BL/6, serum, hour 6): 1116
IL-12 levels, test 2 (IL-12; C57BL/6, serum, hour 6): 973
IL-12 levels, average (IL-12; C57BL/6, serum, hour 12): 195
IL-12 levels, test 1 (IL-12; C57BL/6, serum, hour 12): 174
IL-12 levels, test 2 (IL-12; C57BL/6, serum, hour 12): 216
IL-12 levels, average (IL-12; C57BL/6, serum, hour 24): 0
IL-12 levels, test 1 (IL-12; C57BL/6, serum, hour 24): 0
IL-12 levels, test 2 (IL-12; C57BL/6, serum, hour 24): 0
IL-12 levels, average (IL-12; C57BL/6, serum, hour 48): 61.5
IL-12 levels, test 1 (IL-12; C57BL/6, serum, hour 48): 0
IL-12 levels, test 2 (IL-12; C57BL/6, serum, hour 48): 123
IL-12 levels, average (IL-12; C57BL/6, serum, hour 72): 132.5
IL-12 levels, test 1 (IL-12; C57BL/6, serum, hour 72): 101
IL-12 levels, test 2 (IL-12; C57BL/6, serum, hour 72): 164
IL-12 levels, Total (IL-12; [4]): 1440
IL-4 level, average (IL-4 [2]; hour 0): 27
IL-4 level, test 1 (IL-4 [2]; hour 0): 27
IL-4 level, test 2 (IL-4 [2]; hour 0): 27
IL-4 level, average (IL-4 [2]; hour 2): 1690
IL-4 level, test 1 (IL-4 [2]; hour 2): 1809
IL-4 level, test 2 (IL-4 [2]; hour 2): 1571
IL-4 level, average (IL-4 [2]; hour 6): 204
IL-4 level, test 1 (IL-4 [2]; hour 6): 214
IL-4 level, test 2 (IL-4 [2]; hour 6): 194
IL-4 level, average (IL-4 [2]; hour 12): 89
IL-4 level, test 1 (IL-4 [2]; hour 12): 78
IL-4 level, test 2 (IL-4 [2]; hour 12): 100
IL-4 level, average (IL-4 [2]; hour 24): 50.5
IL-4 level, test 1 (IL-4 [2]; hour 24): 51
IL-4 level, test 2 (IL-4 [2]; hour 24): 50
IL-4 level, average (IL-4 [2]; hour 48): 44
IL-4 level, test 1 (IL-4 [2]; hour 48): 46
IL-4 level, test 2 (IL-4 [2]; hour 48): 42
IL-4 level, average (IL-4 [2]; hour 72): 12
IL-4 level, test 1 (IL-4 [2]; hour 72): 12
IL-4 level, test 2 (IL-4 [2]; hour 72): 12
IL-4 level, Total (IL-4 [2]; total over hours 0-72): 2117
IFN-γ/IL-4 (B6) (IFN-γ; [3]): 3
IFN-γ levels, average (IFN-γ; C57BL/6, serum, hour 0): 31
IFN-γ levels, test 1 (IFN-γ; C57BL/6, serum, hour 0): 31
IFN-γ levels, test 2 (IFN-γ; C57BL/6, serum, hour 0): 31
IFN-γ levels, average (IFN-γ; C57BL/6, serum, hour 2): 874.5
IFN-γ levels, test 1 (IFN-γ; C57BL/6, serum, hour 2): 938
IFN-γ levels, test 2 (IFN-γ; C57BL/6, serum, hour 2): 811
IFN-γ levels, average (IFN-γ; C57BL/6, serum, hour 6): 1919
IFN-γ levels, test 1 (IFN-γ; C57BL/6, serum, hour 6): 1811
IFN-γ levels, test 2 (IFN-γ; C57BL/6, serum, hour 6): 2027
IFN-γ levels, average (IFN-γ; C57BL/6, serum, hour 12): 5352.5
IFN-γ levels, test 1 (IFN-γ; C57BL/6, serum, hour 12): 5179
IFN-γ levels, test 2 (IFN-γ; C57BL/6, serum, hour 12): 5526
IFN-γ levels, average (IFN-γ; C57BL/6, serum, hour 24): 2216
IFN-γ levels, test 1 (IFN-γ; C57BL/6, serum, hour 24): 2214
IFN-γ levels, test 2 (IFN-γ; C57BL/6, serum, hour 24): 2218
IFN-γ levels, average (IFN-γ; C57BL/6, serum, hour 48): 126
IFN-γ levels, test 1 (IFN-γ; C57BL/6, serum, hour 48): 252
IFN-γ levels, test 2 (IFN-γ; C57BL/6, serum, hour 48): 0
IFN-γ levels, average (IFN-γ; C57BL/6, serum, hour 72): 166
IFN-γ levels, test 1 (IFN-γ; C57BL/6, serum, hour 72): 332
IFN-γ levels, test 2 (IFN-γ; C57BL/6, serum, hour 72): 0
IFN-γ levels, Total (IFN-γ; [4]): 10686
